Reference: EP4574817A1 (LoQus23 Therapeutics Limited, priority 2023, dated 2025)

Biological target: T1, MutSβ (Homo sapiens, UniProt P20585+P43246)
T1 construct: purchased AMRI
Assay: MutSβ ADP Glo Assay
Type: biochemical
Conditions: 20nM MutSβ, 30nM CAG DNA, 25 µM ATP, 2 hours at room temperature
Description: Biological Example A - MutSβ Assay
• MutSβ (supplied by AMRI) stored at -70°C • ADP Glo Kinase Assay Kit (Promega: V9102) stored at -20°C • ATP (supplied within the ADP Glo Kit) stored at -20°C • 1M KCI (Sigma Aldrich: P9333) stored at 2-8°C • 1 M HEPES pH 7.5 (Gibco: M15630-080) stored at 2-8°C • 1M MgCl2 (Sigma Aldrich: M1028-100mL) stored at 2-8°C • Tween-20 (Sigma Aldrich: P1379) (10% solution) stored at 2-8°C • 500mM DTT (Sigma Aldrich: 10197777001) stored at -20°C • CAG loop DNA for MutSβ (made in house) stored at -20°C • MilliQ water stored at room temperature
• 1. Prepare the buffer fresh each day • 2. Take the enzyme from the freezer, thaw in room temperature water and centrifuge at 13,000 rpm for 10 minutes at 2-8C, then make up enzyme and ATP stocks • 3. Quality Control the multidrop head to a %CV of <2% • 4. Add 3µL of 33.34nM MutSβ and 50.01nM CAG looped DNA solution […] to each well in columns 1 and 3-23 of the plate • 5. Pre-incubate the MutSβ and buffer mix for 10 minutes with the compounds • 6. Wash the multidrop head through with MilliQ water (for at least 30 seconds) • 7. Add 3µL of MutSβ Assay buffer (without enzyme) to columns 2 and 24 for the vehicle controls • 8. Wash the multidrop head through with MilliQ water (for at least 30 seconds) • 9. Add 2µL of 62.5µM ATP to each well of the whole plate, then wash with MilliQ water (for a minimum of 30 seconds) • 10. Centrifuge plate for 1 minute at 1000 rpm • 11. Incubate for 2 hours at room temperature • 12. Add 5µL of ADP Glo reagent to each well of the whole plate and wash the multidrop head with MilliQ water (for a minimum of 30 seconds) • 13. Incubate for 40 minutes at room temperature (minimum requirement) • 14. Add 10µL of Kinase Detection Reagent to each well of the whole plate • 15. Wash the multidrop head with MilliQ water more than 1 minute and then dry • 16. Remove the head and put the cover back on for overnight storage • 17. Incubate for 30 minutes at room temperature (minimum requirement) • 18. Read on a microplate reader

T1 sequence (P43246 whole entry): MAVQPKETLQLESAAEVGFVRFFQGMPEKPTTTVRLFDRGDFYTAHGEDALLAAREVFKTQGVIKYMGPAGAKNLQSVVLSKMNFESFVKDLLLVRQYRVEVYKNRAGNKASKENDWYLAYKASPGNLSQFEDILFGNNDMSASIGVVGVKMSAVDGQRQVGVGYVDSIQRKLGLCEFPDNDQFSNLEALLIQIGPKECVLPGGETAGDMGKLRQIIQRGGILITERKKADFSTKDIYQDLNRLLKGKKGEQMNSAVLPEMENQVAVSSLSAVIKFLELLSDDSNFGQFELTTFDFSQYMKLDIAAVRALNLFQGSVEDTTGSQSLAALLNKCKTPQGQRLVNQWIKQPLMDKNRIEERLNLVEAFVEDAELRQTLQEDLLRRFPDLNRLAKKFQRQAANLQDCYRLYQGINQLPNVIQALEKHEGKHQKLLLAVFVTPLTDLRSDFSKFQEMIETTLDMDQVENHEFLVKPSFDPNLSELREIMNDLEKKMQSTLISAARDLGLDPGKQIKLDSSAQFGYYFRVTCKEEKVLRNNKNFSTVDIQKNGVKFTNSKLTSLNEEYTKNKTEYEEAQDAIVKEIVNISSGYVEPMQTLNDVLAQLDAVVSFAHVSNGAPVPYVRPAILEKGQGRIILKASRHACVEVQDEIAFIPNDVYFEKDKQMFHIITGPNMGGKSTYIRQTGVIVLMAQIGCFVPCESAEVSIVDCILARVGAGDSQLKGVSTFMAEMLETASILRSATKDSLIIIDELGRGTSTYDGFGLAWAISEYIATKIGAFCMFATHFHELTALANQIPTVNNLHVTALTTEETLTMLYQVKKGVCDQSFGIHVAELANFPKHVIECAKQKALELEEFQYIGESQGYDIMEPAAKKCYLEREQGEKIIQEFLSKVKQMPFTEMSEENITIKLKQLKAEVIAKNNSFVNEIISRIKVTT
T1 sequence (P20585 whole entry): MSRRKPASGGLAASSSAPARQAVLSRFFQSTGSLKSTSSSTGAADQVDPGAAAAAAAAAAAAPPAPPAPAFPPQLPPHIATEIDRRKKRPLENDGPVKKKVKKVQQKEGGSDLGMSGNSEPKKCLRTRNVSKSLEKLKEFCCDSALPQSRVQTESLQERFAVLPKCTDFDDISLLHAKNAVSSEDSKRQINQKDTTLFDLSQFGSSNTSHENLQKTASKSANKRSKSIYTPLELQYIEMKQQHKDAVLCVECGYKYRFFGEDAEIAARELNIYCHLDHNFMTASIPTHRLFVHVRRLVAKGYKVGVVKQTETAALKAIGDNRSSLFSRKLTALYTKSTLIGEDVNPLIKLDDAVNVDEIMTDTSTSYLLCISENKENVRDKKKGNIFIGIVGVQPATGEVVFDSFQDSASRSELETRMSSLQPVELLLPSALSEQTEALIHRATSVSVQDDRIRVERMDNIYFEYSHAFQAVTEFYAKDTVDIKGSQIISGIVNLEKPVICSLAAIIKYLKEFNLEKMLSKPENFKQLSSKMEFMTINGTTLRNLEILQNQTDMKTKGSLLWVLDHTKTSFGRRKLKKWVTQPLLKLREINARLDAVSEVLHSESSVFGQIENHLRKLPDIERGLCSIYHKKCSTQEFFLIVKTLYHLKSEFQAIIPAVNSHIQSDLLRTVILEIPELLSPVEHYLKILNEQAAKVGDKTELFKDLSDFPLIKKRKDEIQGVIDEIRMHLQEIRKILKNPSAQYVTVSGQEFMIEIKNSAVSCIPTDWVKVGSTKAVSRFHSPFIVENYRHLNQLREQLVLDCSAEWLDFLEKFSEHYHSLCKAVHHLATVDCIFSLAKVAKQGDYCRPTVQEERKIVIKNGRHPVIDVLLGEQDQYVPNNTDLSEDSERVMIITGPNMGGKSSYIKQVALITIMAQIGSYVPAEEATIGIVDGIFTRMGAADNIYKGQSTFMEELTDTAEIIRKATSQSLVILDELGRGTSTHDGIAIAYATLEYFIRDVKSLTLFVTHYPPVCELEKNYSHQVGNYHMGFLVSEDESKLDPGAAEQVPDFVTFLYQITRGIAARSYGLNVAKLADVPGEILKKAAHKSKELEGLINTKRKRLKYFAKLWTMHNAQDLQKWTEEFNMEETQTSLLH

IC50 [µM] | Compound
1 to 10 | Cc1ccc(Cc2sc(NC(=O)COS(N)(=O)=O)nc2C)cc1 [Example 3, 2-((4-methyl-5-(4-methylbenzyl)thiazol-2-yl)amino)-2-oxoethyl sulfamate]
0.5 to 1 | Cc1nc(NC(=O)COS(=O)(=O)N(C)C)sc1Cc1ccc(F)cc1 [Example 4, 2-((5-(4-fluorobenzyl)-4-methylthiazol-2-yl)amino)-2-oxoethyl dimethylsulfamate]
1 to 10 | CNS(=O)(=O)OCC(=O)Nc1nc(C)c(Cc2ccc3ccccc3c2)s1 [Example 5, 2-((4-methyl-5-(naphthalen-2-ylmethyl)thiazol-2-yl)amino)-2-oxoethyl methylsulfamate]
1 to 10 | Cc1ccc(Cc2sc(NC(=O)COS(=O)(=O)NC3CC3)nc2C)cc1 [Example 6, 2-((4-methyl-5-(4-methylbenzyl)thiazol-2-yl)amino)-2-oxoethyl cyclopropylsulfamate]
≤ 0.5 | CNS(=O)(=O)OCC(=O)Nc1nc(C)c(Cc2ccc(F)c(Cl)c2)s1 [Example 7, 2-((5-(3-chloro-4-fluorobenzyl)-4-methylthiazol-2-yl)amino)-2-oxoethyl methylsulfamate]
0.5 to 1 | COCCNS(=O)(=O)OCC(=O)Nc1nc(C)c(Cc2cccc(Cl)c2)s1 [Example 8, 2-((5-(3-chlorobenzyl)-4-methylthiazol-2-yl)amino)-2-oxoethyl (2-methoxyethyl)sulfamate]
0.5 to 1 | Cc1ccc(Cc2sc(NC(=O)COS(=O)(=O)N3CCOCC3)nc2C)cc1 [Example 9, 2-((4-methyl-5-(4-methylbenzyl)thiazol-2-yl)amino)-2-oxoethyl morpholine-4-sulfonate]
10 to 50 | CNS(=O)(=O)OCC(=O)Nc1nc(C)c(Cc2ccccc2C)s1 [Example 11, 2-((4-methyl-5-(2-methylbenzyl)thiazol-2-yl)amino)-2-oxoethyl methylsulfamate]
1 to 10 | Cc1nc(NC(=O)COS(=O)(=O)N(C)C)sc1Cc1cccc(C(F)(F)F)c1 [Example 13, 2-((4-methyl-5-(3-(trifluoromethyl)benzyl)thiazol-2-yl)amino)-2-oxoethyl dimethylsulfamate]
1 to 10 | CNS(=O)(=O)OCC(=O)Nc1nc(C)c(Cc2ccccc2Cl)s1 [Example 16, 2-((5-(2-chlorobenzyl)-4-methylthiazol-2-yl)amino)-2-oxoethyl methylsulfamate]
1 to 10 | CCc1nc(NC(=O)COS(=O)(=O)NC)sc1Cc1ccc(C)cc1 [Example 18, 2-((4-ethyl-5-(4-methylbenzyl)thiazol-2-yl)amino)-2-oxoethyl methylsulfamate]
1 to 10 | Cc1ccc(Cc2sc(NC(=O)COS(=O)(=O)N(C)C)nc2C)cc1 [Example 20, 2-((4-methyl-5-(4-methylbenzyl)thiazol-2-yl)amino)-2-oxoethyl dimethylsulfamate]
0.5 to 1 | Cc1ccc(Cc2sc(NC(=O)COS(=O)(=O)N3CC(F)C3)nc2C)cc1 [Example 21, 2-((4-methyl-5-(4-methylbenzyl)thiazol-2-yl)amino)-2-oxoethyl 3-fluoroazetidine-1-sulfonate]
1 to 10 | Cc1nc(NC(=O)COS(=O)(=O)N(C)C)sc1Cc1ccccc1F [Example 22, 2-((5-(2-fluorobenzyl)-4-methylthiazol-2-yl)amino)-2-oxoethyl dimethylsulfamate]
1 to 10 | Cc1ccc(Cc2sc(NC(=O)COS(=O)(=O)NC(C)C)nc2C)cc1 [Example 23, 2-((4-methyl-5-(4-methylbenzyl)thiazol-2-yl)amino)-2-oxoethyl isopropylsulfamate]
1 to 10 | CNS(=O)(=O)OCC(=O)Nc1nc(C)c(Cc2cccc(C)c2)s1 [Example 24, 2-((4-methyl-5-(3-methylbenzyl)thiazol-2-yl)amino)-2-oxoethyl methylsulfamate]
≤ 0.5 | Cc1ccc(Cc2sc(NC(=O)COS(=O)(=O)N3CCC3)nc2C)cc1 [Example 25, 2-((4-methyl-5-(4-methylbenzyl)thiazol-2-yl)amino)-2-oxoethyl azetidine-1-sulfonate]
1 to 10 | CNS(=O)(=O)OCC(=O)Nc1nc(C)c(Cc2ccc(OC)cc2)s1 [Example 26, 2-((5-(4-methoxybenzyl)-4-methylthiazol-2-yl)amino)-2-oxoethyl methylsulfamate]

IC50 [µM] | Compound
1 to 10 | Cc1nc(NC(=O)COS(=O)(=O)N(C)C)sc1Cc1ccccc1 [Example 28, 2-((5-benzyl-4-methylthiazol-2-yl)amino)-2-oxoethyl dimethylsulfamate]
0.5 to 1 | COCCN(C)S(=O)(=O)OCC(=O)Nc1nc(C)c(Cc2ccc(C)cc2)s1 [Example 29, 2-((4-methyl-5-(4-methylbenzyl)thiazol-2-yl)amino)-2-oxoethyl (2-methoxyethyl)(methyl)sulfamate]
1 to 10 | CNS(=O)(=O)OCC(=O)Nc1nc(C)c(Cc2ccc(Cl)cc2)s1 [Example 30, 2-((5-(4-chlorobenzyl)-4-methylthiazol-2-yl)amino)-2-oxoethyl methylsulfamate]
1 to 10 | Cc1ccc(Cc2sc(NC(=O)COS(=O)(=O)N3CCCC3)nc2C)cc1 [Example 31, 2-((4-methyl-5-(4-methylbenzyl)thiazol-2-yl)amino)-2-oxoethyl pyrrolidine-1-sulfonate]
1 to 10 | CNS(=O)(=O)OCC(=O)Nc1nc(C)c(Cc2ccc(C(F)(F)F)cc2)s1 [Example 32, 2-((4-methyl-5-(4-(trifluoromethyl)benzyl)thiazol-2-yl)amino)-2-oxoethyl methylsulfamate]
10 to 50 | CNS(=O)(=O)OCC(=O)Nc1nc(C)c(Cc2ccc(C(C)C)cc2)s1 [Example 33, 2-((5-(4-isopropylbenzyl)-4-methylthiazol-2-yl)amino)-2-oxoethyl methylsulfamate]
10 to 50 | Cc1nc(NC(=O)COS(=O)(=O)N(C)C)sc1CCc1ccccc1 [Example 35, 2-((4-methyl-5-phenethylthiazol-2-yl)amino)-2-oxoethyl dimethylsulfamate]
1 to 10 | CNS(=O)(=O)OCC(=O)Nc1nc(C2CC2)c(Cc2ccc(C)cc2)s1 [Example 36, 2-((4-cyclopropyl-5-(4-methylbenzyl)thiazol-2-yl)amino)-2-oxoethyl methylsulfamate]
10 to 50 | CNS(=O)(=O)OCC(=O)Nc1nc(C(C)C)c(Cc2ccc(C)cc2)s1 [Example 37, 2-((4-isopropyl-5-(4-methylbenzyl)thiazol-2-yl)amino)-2-oxoethyl methylsulfamate]
10 to 50 | CNS(=O)(=O)OCC(=O)Nc1nc(C)c(CCc2ccc(Cl)cc2)s1 [Example 38, 2-((5-(4-chlorophenethyl)-4-methylthiazol-2-yl)amino)-2-oxoethyl methylsulfamate]
1 to 10 | CCCNS(=O)(=O)OCC(=O)Nc1nc(C)c(Cc2ccc(C)cc2)s1 [Example 41, 2-((4-methyl-5-(4-methylbenzyl)thiazol-2-yl)amino)-2-oxoethyl propylsulfamate]
1 to 10 | Cc1ccc(Cc2sc(NC(=O)COS(=O)(=O)N(C)Cc3ccccc3)nc2C)cc1 [Example 42, 2-((4-methyl-5-(4-methylbenzyl)thiazol-2-yl)amino)-2-oxoethyl benzyl(methyl)sulfamate]
10 to 50 | Cc1ccc(Cc2sc(NC(=O)COS(=O)(=O)NC(C)(C)C)nc2C)cc1 [Example 43, 2-((4-methyl-5-(4-methylbenzyl)thiazol-2-yl)amino)-2-oxoethyl tert-butylsulfamate]
1 to 10 | Cc1ccc(Cc2sc(NC(=O)COS(=O)(=O)NCc3ccccc3)nc2C)cc1 [Example 45, 2-((4-methyl-5-(4-methylbenzyl)thiazol-2-yl)amino)-2-oxoethyl benzylsulfamate]
1 to 10 | CNS(=O)(=O)OCC(=O)Nc1nc(C)c(Cc2ccc(C)cc2)s1 [Example 47, 2-((4-methyl-5-(4-methylbenzyl)thiazol-2-yl)amino)-2-oxoethyl methylsulfamate]
10 to 50 | CNS(=O)(=O)OCC(=O)Nc1nc(C)c(Cc2cccc3ccccc23)s1 [Example 48, 2-((4-methyl-5-(naphthalen-1-ylmethyl)thiazol-2-yl)amino)-2-oxoethyl methylsulfamate]
0.5 to 1 | Cc1nc(NC(=O)COS(=O)(=O)NCCF)sc1Cc1cccc(Cl)c1 [Example 49, 2-((5-(3-chlorobenzyl)-4-methylthiazol-2-yl)amino)-2-oxoethyl (2-fluoroethyl)sulfamate]

Compound | IC50 [µM]
2-((4-methyl-5-(4-methylbenzyl)thiazol-2-yl)amino)-2-oxoethyl isobutylsulfamate [Example 17] | 10 to 50
CNS(=O)(=O)OCC(=O)Nc1nc(C(F)(F)F)c(Cc2ccc(C)cc2)s1 [Example 44] | 1 to 10
